In US20240217951A1, “PCSK9 INHIBITORS AND METHODS OF USE THEREOF” (AstraZeneca AB, priority 2022, published 2024):
Each block holds one molecule with its values, some of them ahead of it.

Columns and labels:
[1] = target: T1, potassium ion channel hERG (human Ether-á-go-go-Related Gene) (Homo sapiens, UniProt Q12809); test: Assay 5 - hERG assay (SyncroPatch 384PE patch clamp, CHO cells); type: cell-based; settings: geometric mean; CHO cells over-expressing hERG; read-out: Assay 5 (hERG Hu CHO IF EPh CR-Syncro) GMean IC50
T1 construct: expressed in transfected cells; host or cells: Chinese hamster ovary K1 (CHO)
Protocol: Assay 5—hERG Assay (Human Ether-á-go-go-Related Gene)
This assay (human Ether-á-go-go-Related Gene) measures activity of the compounds at the potassium ion channel hERG (human Ether-á-go-go-Related Gene).
Experiments were performed on the SyncroPatch 384PE high throughput patch clamp platform at room temperature and medium resistance chips with 4 patch holes per site. Chinese hamster ovary K1 (CHO) cell lines over-expressing the ion channel of choice (hERG) were used in assay-ready format and kept in liquid nitrogen or were used from live culture. Cells were either thawed and diluted in HBSS or were detached from flasks and resuspended in HBSS. HBSS comprised 140 mM NaCl, 4 mM KCl, 10 mM HEPES and 5 mM Glucose (pH7.4). The internal patch clamp solution was KF 120 mM, KCl 20 mM, HEPES 10 mM, EGTA 10 mM, and 25 PM Escin (pH 7.2). After the sealing process was complete, the external solution was exchanged for external patch clamp solution comprising NaCl 80 mM, KCl 4 mM, HEPES 10 mM, CaCl2 2 mM, MgCl2 1 mM, glucose 5 mM, and NMDG 60 mM (pH 7.4). All solutions were stored at room temperature, except Escin, which was stored at 4° C. All test compounds were dispensed in greiner-bio 384 well plates and tested in a 6 point cumulative assay (final DMSO concentration 0.33%). Only wells that passed previously agreed acceptance criteria for this platform were used in this analysis (30 MegaOhm seal resistance, Z prime >0.4 and current size >0.2 nA).

[2] = target: GSK3β (Glycogen synthase kinase-3 beta) (Homo sapiens, UniProt P49841); test: Assay 6 - GSK3β assay (ThermoFisher Z-Lyte); type: biochemical; settings: geometric mean; ATP Conc: 10 μM; read-out: Assay 6 (GSK3β FRET-Z-Lyte CR) GMean IC50 (μM) ATP Conc: 10
Protocol: Assay 6—GSK3β Assay (ThermoFisher Assay)
This assay measures the activity of the compounds at GSK3β (Glycogen synthase kinase-3 beta).
The test compounds were screened in 1% DMSO (final) in the well. For 10 point titrations, 3-fold serial dilutions are conducted from the starting concentration of 10 μM.
Bar-coded Corning, low volume NBS, black 384-well plate • 1. 2.5 μL—4× Test Compound or 100 nL 100× plus 2.4 μL kinase buffer • 2. 5 μL—2× Peptide/Kinase Mixture • 3. 2.5 μL—4×ATP Solution • 4. 30-second plate shake • 5. 60-minute Kinase Reaction incubation at room temperature • 6. 5 μL—Development Reagent Solution • 7. 30-second plate shake • 8. 60-minute Development Reaction incubation at room temperature • 9. Read on fluorescence plate reader and analyse the data
In step 2, the 2×GSK3β (GSK3 beta)/Ser/Thr (Glycogen synthase kinase-3 beta/Serine/Threonine) 09 mixture is prepared in 50 mM HEPES (4-(2-hydroxyethyl)-1-piperazineethanesulfonic acid) pH 7.5, 0.01% BRIJ-35, 10 mM MgCl2, 1 mM EGTA (egtazic acid). The final 10 μL Kinase Reaction consists of 0.22-0.92 ng GSK3β (GSK3 beta) and 2 μM Ser/Thr 09 in 50 mM HEPES pH 7.5, 0.01% BRIJ-35, 10 mM MgCl2, 1 mM EGTA.
In step 3 the ATP Solution is diluted to a 4× working concentration in Kinase Buffer (50 mM HEPES pH 7.5, 0.01% BRIJ-35, 10 mM MgCl2, 1 mM EGTA).
In Step 6 the Development Reagent is diluted 1:512 in Development Buffer (10× Novel PKC Lipid Mix: 2 mg/mL Phosphatidyl Serine, 0.2 mg/mL DAG in 20 mM HEPES, pH 7.4, 0.3% CHAPS).
SelectScreen® Kinase Profiling Service uses XLfit from IDBS. The dose response curve is curve fit to model number 205 (sigmoidal dose-response model).

[3] = target: PCSK9 (Homo sapiens, UniProt Q8NBP7, G670E/V474I); test: biochemical
PCSK9, sequence (Q8NBP7 with tags, fused parts or gaps V474I/G670E): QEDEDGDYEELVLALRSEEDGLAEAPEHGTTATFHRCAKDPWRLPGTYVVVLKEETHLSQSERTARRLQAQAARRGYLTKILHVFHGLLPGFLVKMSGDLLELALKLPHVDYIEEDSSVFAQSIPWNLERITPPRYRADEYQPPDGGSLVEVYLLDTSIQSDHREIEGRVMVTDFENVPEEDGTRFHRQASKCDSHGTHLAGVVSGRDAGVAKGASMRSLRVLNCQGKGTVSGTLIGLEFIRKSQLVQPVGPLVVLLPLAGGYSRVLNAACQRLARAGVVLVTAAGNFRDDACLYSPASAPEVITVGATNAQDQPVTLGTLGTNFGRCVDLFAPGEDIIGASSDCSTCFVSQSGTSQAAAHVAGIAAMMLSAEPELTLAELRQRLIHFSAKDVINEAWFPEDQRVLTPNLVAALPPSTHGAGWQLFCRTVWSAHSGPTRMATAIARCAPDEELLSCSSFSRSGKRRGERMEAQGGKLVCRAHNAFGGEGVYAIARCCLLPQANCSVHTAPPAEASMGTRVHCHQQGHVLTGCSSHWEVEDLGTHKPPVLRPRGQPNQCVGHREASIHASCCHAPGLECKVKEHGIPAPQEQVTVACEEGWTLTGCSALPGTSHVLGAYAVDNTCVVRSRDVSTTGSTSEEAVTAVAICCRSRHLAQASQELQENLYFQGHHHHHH

GSK3β (Glycogen synthase kinase-3 beta), sequence (P49841 whole entry): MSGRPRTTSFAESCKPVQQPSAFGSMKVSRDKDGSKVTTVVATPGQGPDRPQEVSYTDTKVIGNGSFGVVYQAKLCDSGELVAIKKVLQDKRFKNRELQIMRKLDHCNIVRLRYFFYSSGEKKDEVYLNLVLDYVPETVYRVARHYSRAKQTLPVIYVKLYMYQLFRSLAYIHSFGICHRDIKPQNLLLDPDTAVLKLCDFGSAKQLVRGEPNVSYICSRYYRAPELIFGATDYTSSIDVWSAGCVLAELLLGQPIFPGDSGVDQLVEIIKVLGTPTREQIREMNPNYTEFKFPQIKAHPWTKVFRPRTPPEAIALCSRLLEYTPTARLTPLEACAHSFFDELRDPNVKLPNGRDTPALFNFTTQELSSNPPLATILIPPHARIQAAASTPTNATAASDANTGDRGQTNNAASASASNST
T1 sequence (Q12809 whole entry): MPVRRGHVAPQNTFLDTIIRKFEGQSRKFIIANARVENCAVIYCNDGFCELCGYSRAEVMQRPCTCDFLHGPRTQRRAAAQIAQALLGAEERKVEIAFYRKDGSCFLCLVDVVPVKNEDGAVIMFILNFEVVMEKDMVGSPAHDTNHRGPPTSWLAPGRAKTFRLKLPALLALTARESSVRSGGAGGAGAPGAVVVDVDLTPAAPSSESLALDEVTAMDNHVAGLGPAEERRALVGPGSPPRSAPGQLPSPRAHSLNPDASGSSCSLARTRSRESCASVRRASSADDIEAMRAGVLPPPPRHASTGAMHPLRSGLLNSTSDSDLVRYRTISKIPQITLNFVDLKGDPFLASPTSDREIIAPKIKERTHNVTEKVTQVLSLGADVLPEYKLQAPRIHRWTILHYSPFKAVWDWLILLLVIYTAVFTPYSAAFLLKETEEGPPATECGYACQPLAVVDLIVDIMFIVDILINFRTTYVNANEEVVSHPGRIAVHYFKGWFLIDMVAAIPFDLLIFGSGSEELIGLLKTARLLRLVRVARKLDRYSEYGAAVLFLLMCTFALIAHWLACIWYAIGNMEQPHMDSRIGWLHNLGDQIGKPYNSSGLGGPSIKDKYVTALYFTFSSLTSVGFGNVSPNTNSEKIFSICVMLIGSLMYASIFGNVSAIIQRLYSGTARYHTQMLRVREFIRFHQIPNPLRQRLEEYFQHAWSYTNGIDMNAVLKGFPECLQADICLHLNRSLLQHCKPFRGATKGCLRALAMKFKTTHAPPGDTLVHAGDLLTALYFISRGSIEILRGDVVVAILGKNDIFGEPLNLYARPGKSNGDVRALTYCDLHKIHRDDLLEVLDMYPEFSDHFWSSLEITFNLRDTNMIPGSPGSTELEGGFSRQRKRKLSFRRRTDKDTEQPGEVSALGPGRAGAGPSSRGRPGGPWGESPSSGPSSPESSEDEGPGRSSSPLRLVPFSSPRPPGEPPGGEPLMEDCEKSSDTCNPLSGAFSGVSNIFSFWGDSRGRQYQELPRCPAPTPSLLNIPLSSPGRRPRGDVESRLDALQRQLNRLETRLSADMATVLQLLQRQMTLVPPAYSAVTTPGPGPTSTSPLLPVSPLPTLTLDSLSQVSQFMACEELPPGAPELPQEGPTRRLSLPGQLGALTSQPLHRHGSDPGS

Structure (SMILES): CNC(=O)c1cnc(N[C@H]2CC[C@H](Nc3ccc(-n4cccc(Cl)c4=O)cn3)C2)cn1 [Example 149, 5-(((1S,3S)-3-((3-Chloro-2-oxo-2H-[1,3′-bipyridin]-6′-yl)amino)cyclopentyl)amino)-N-methylpyrazine-2-carboxamide]
IC50 [1]: > 40.1 µM
IC50 [2]: > 10 µM
IC50 [3]: 3.96 µM

Structure (SMILES): Cn1ncc2ncc(N[C@H]3CC[C@H](Nc4ccc(-n5ccccc5=O)cn4)C3)nc21 [Example 9, 6′-(((1S,3S)-3-((1-Methyl-1H-pyrazolo[3,4-b]pyrazin-6-yl)amino)cyclopentyl)amino)-2H-[1,3′-bipyridin]-2-one]
IC50 [1]: > 40 µM
IC50 [2]: 5.6 µM
IC50 [3]: 0.677 µM

Structure (SMILES): CNC(=O)c1cnc(N[C@H]2CC[C@H](Nc3ccc(-n4cccc(OC)c4=O)cn3)C2)cn1 (stereo in doubt) [Example 150, 5-(((1S,3S)-3-((3-Methoxy-2-oxo-2H-[1,3′-bipyridin]-6′-yl)amino)cyclopentyl)amino)-N-methylpyrazine-2-carboxamide]
IC50 [1]: > 40.1 µM
IC50 [2]: > 10 µM
IC50 [3]: 8.7 µM

Structure (SMILES): O=C1CC[C@H](CO)N1c1ccc(N[C@H]2CC[C@H](Nc3cnc(OC(F)F)cn3)C2)nc1 [Example 77, (R)-1-(6-(((1S,3S)-3-((5-(Difluoromethoxy)pyrazin-2-yl)amino)cyclopentyl)amino)pyridin-3-yl)-5-(hydroxymethyl)pyrrolidin-2-one]
IC50 [1]: > 40 µM
IC50 [2]: > 10 µM
IC50 [3]: 1.53 µM

Structure (SMILES): COc1ccc(=O)n(-c2ccc(N[C@H]3CC[C@H](Nc4cnc(Cl)cn4)C3)nc2)c1 [Example 28, 6′-(((1S,3S)-3-((5-Chloropyrazin-2-yl)amino)cyclopentyl)amino)-5-methoxy-2H-[1,3′-bipyridin]-2-one]
IC50 [1]: 25 µM
IC50 [2]: 0.16 µM
IC50 [3]: 0.043 µM

Structure (SMILES): O=c1ccc(Cl)cn1-c1ccc(N[C@H]2CC[C@H](Nc3cnc(C4CC4)cn3)C2)nc1 [Example 109, 5-Chloro-6′-(((1S,3S)-3-((5-Cyclopropylpyrazin-2-yl)amino)cyclopentyl)amino)-2H-[1,3′-bipyridin]-2-one]
IC50 [1]: 19.9 µM
IC50 [2]: > 10 µM
IC50 [3]: 0.041 µM

Structure (SMILES): CCSc1cnc(N[C@H]2CC[C@H](Nc3ccc(-n4ccccc4=O)cn3)C2)cn1 [Example 163, 6′-(((1S,3S)-3-((5-(Ethylthio)pyrazin-2-yl)amino)cyclopentyl)amino)-2H-[1,3′-bipyridin]-2-one]
IC50 [1]: 30.7 µM
IC50 [2]: > 10 µM
IC50 [3]: 0.14 µM

Structure (SMILES): N#Cc1ccc(=O)n(-c2ccc(N[C@H]3CC[C@H](Nc4cnc(Cl)cn4)C3)nc2)c1 [Example 99, 6′-(((1S,3S)-3-((5-Chloropyrazin-2-yl)amino)cyclopentyl)amino)-2-oxo-2H-[1,3′-bipyridine]-5-carbonitrile]
IC50 [1]: 19.9 µM
IC50 [2]: > 10 µM
IC50 [3]: 0.04 µM

Structure (SMILES): Cc1cnc(N[C@H]2CC[C@H](Nc3ccc(-n4cc(C#N)ccc4=O)cn3)C2)cn1 [Example 49, 6′-(((1S,3S)-3-((5-Methylpyrazin-2-yl)amino)cyclopentyl)amino)-2-oxo-2H-[1,3′-bipyridine]-5-carbonitrile]
IC50 [1]: > 40 µM
IC50 [2]: > 10 µM
IC50 [3]: 0.058 µM

Structure (SMILES): COc1ccc(=O)n(-c2ccc(N[C@H]3CC[C@H](Nc4cnc(C5CC5)cn4)C3)nc2)c1 [Example 107, 6′-(((1S,3S)-3-((5-Cyclopropylpyrazin-2-yl)amino)cyclopentyl)amino)-5-methoxy-2H-[1,3′-bipyridin]-2-one]
IC50 [2]: 0.16 µM
IC50 [3]: 0.105 µM

Structure (SMILES): Cc1ccc(=O)n(-c2ccc(N[C@H]3CC[C@H](Nc4cnc(Cl)cn4)C3)nc2)c1 [Example 30, 6′-(((1S,3S)-3-((5-Chloropyrazin-2-yl)amino)cyclopentyl)amino)-5-methyl-2H-[1,3′-bipyridin]-2-one]
IC50 [1]: 32.2 µM
IC50 [2]: > 10 µM
IC50 [3]: 0.027 µM

Structure (SMILES): Cc1cnc(N[C@H]2CC[C@H](Nc3ccc(N4C(=O)CN(C)C4=O)cn3)C2)cn1 [Example 41, 1-Methyl-3-(6-(((1S,3S)-3-((5-methylpyrazin-2-yl)amino)cyclopentyl)amino)pyridin-3-yl)imidazolidine-2,4-dione]
IC50 [1]: > 40 µM
IC50 [2]: > 10 µM
IC50 [3]: 0.057 µM

Structure (SMILES): O=C1[C@@H]2OCC[C@@H]2CCN1c1ccc(N[C@H]2CC[C@H](Nc3cnc(OC(F)F)cn3)C2)nc1 [Example 78, (3aS,7aR)-6-(6-(((1S,3S)-3-((5-(Difluoromethoxy)pyrazin-2-yl)amino)cyclopentyl)amino)pyridin-3-yl)hexahydrofuro[2,3-c]pyridin-7(4H)-one]
IC50 [1]: > 40 µM
IC50 [2]: > 10 µM
IC50 [3]: 1.63 µM

Structure (SMILES): COc1ccc(=O)n(-c2ccc(N[C@H]3CC[C@H](Nc4cnc(OC(F)F)cn4)C3)nc2)c1 [Example 95, 6′-(((1S,3S)-3-((5-(Difluoromethoxy)pyrazin-2-yl)amino)cyclopentyl)amino)-5-methoxy-2H-[1,3′-bipyridin]-2-one]
IC50 [1]: 11.1 µM
IC50 [2]: 0.115 µM
IC50 [3]: 0.114 µM

Structure (SMILES): Cc1ncc(N[C@H]2CC[C@H](Nc3ccc(N4CC(=O)N(C)C4=O)cn3)C2)nc1C [Example 16, 1-(6-(((1S,3S)-3-((5,6-Dimethylpyrazin-2-yl)amino)cyclopentyl)amino)pyridin-3-yl)-3-methylimidazolidine-2,4-dione]
IC50 [1]: > 40 µM
IC50 [2]: > 10 µM
IC50 [3]: 0.103 µM

Structure (SMILES): COc1ccc(=O)n(-c2ccc(N[C@H]3CC[C@H](Nc4cnc(C)c(C)n4)C3)nc2)c1 [Example 15, 6′-(((1S,3S)-3-((5,6-Dimethylpyrazin-2-yl)amino)cyclopentyl)amino)-5-methoxy-2H-[1,3′-bipyridin]-2-one]
IC50 [1]: > 40 µM
IC50 [2]: 0.874 µM
IC50 [3]: 0.118 µM

Structure (SMILES): COc1ccc(=O)n(-c2ccc(N[C@H]3CC[C@H](Nc4cnc(C)cn4)C3)nc2)c1 [Example 40, 5-Methoxy-6′-(((1S,3S)-3-((5-methylpyrazin-2-yl)amino)cyclopentyl)amino)-2H-[1,3′-bipyridin]-2-one]
IC50 [1]: 35.5 µM
IC50 [2]: 0.192 µM
IC50 [3]: 0.067 µM

Structure (SMILES): Cc1cnc(N[C@H]2CC[C@H](Nc3ccc(N4C(=O)CCc5cccnc54)cn3)C2)cn1 [Example 276, 1-(6-(((1S,3S)-3-((5-Methylpyrazin-2-yl)amino)cyclopentyl)amino)pyridin-3-yl)-3,4-dihydro-1,8-naphthyridin-2 (1H)-one]
IC50 [1]: > 40 µM
IC50 [2]: > 10 µM
IC50 [3]: 0.08 µM

Structure (SMILES): Cc1cnc(N[C@H]2CC[C@H](Nc3ccc(-n4nccc(OC(F)F)c4=O)cn3)C2)cn1 [Example 282, 4-(Difluoromethoxy)-2-(6-(((1S,3S)-3-((5-methylpyrazin-2-yl)amino)cyclopentyl)amino)pyridin-3-yl)pyridazin-3 (2H)-one]
IC50 [1]: > 40.1 µM
IC50 [2]: > 10 µM
IC50 [3]: 0.01 µM

Structure (SMILES): CSc1cnc(N[C@H]2CC[C@H](Nc3ccc(-n4ccccc4=O)cn3)C2)cn1 [Example 162, 6′-(((1S,3S)-3-((5-(Methylthio)pyrazin-2-yl)amino)cyclopentyl)amino)-2H-[1,3′-bipyridin]-2-one]
IC50 [1]: > 40.1 µM
IC50 [2]: > 10 µM
IC50 [3]: 0.042 µM

IC50 [2]: > 10 µM
Structure (SMILES): Cc1cnc(N[C@H]2CC[C@H](Nc3ccc(-n4cccc(-c5cnn(C)c5)c4=O)cn3)C2)cn1 [Example 203, 3-(1-Methyl-1H-pyrazol-4-yl)-6′-(((1S,3S)-3-((5-methylpyrazin-2-yl)amino)cyclopentyl)amino)-2H-[1,3′-bipyridin]-2-one]
IC50 [1]: > 40.1 µM
